From patent US4007177A, “Cephalosporin derivatives” (Sankyo Company Limited, priority 1973, dated 1977)
≈ marks a conversion by molar mass, not a printed value. Read-outs that look alike come from different tables or passages of the source.

Legend:
Format in all cases: cell-based
S.aureus R = experiment: Minimum inhibitory concentration, S.aureus R; details: Staphylococcus aureus
Protocol: (§1) Minimum inhibitory concentrations (MIC) were determined for the compounds of this invention.

S.aureus 209p = experiment: Minimum inhibitory concentration, S.aureus 209p; details: Staphylococcus aureus
Protocol: as §1

Sh. flexneri 2a = experiment: Minimum inhibitory concentration, Sh. flexneri 2a; details: Shigella flexneri
Protocol: as §1

E. coli NIHJ = experiment: Minimum inhibitory concentration, E. coli NIHJ; details: Escherichia coli
Protocol: as §1

Klebsiella 806 = experiment: Minimum inhibitory concentration, Klebsiella 806
Protocol: as §1

Salm. ent. Gaertner = experiment: Minimum inhibitory concentration, Salm. ent. Gaertner; details: read-out: Minimum Inhibitory Concentration
Protocol: as §1

Klebsiella 846 = experiment: Minimum inhibitory concentration, Klebsiella 846
Protocol: as §1

E. coli 609 (R) = experiment: Minimum inhibitory concentration, E. coli 609 (R); details: Escherichia coli, read-out: Minimum Inhibitory Concentration
Protocol: as §1

Prot. vulgaris = experiment: Minimum inhibitory concentration, Prot. vulgaris; details: Proteus vulgaris
Protocol: as §1

SMILES | MIC (S.aureus R) | MIC (S.aureus 209p) | MIC (Sh. flexneri 2a) | MIC (E. coli NIHJ) | MIC (Klebsiella 806) | MIC (Salm. ent. Gaertner; Salm. ent. Gaertner) | MIC (Klebsiella 846) | MIC (E. coli 609 (R); E. coli 609 (R)) | MIC (Prot. vulgaris) | MIC (Salm. ent. Gaertner) | MIC (E. coli 609 (R))
CCS(=O)(=O)CC(=O)N[C@]1(OC)C(=O)N2C(C(=O)O)=C(CSc3nnnn3C)CS[C@@H]21 [C2 H 5 SO2, 7β-Ethylsulfonylacetamido-7α-methoxy-3-(1-methyl-1H-tetrazol-5-yl)thiomethyl-3-cephem-4-carboxylic acid] | 1.5 µg/mL (≈ 3.05 µM) | 1.5 µg/mL (≈ 3.05 µM) | 1.5 µg/mL (≈ 3.05 µM) | 1.5 µg/mL (≈ 3.05 µM) | 1.5 µg/mL (≈ 3.05 µM) | 0.8 µg/mL (≈ 1.62 µM) | > 400 µg/mL | 1.5 µg/mL (≈ 3.05 µM) | 6.2 µg/mL (≈ 12.6 µM) |  | 
COC1(NC(=O)C[n+]2cc([O-])on2)C(=O)N2C(C(=O)O)=C(CSc3nnnn3C)CSC21 (stereo not drawn) | 1.5 µg/mL (≈ 3.1 µM) | 0.8 µg/mL (≈ 1.65 µM) | 1.5 µg/mL (≈ 3.1 µM) | 1.5 µg/mL (≈ 3.1 µM) | 1.5 µg/mL (≈ 3.1 µM) | 0.8 µg/mL (≈ 1.65 µM) | > 200 µg/mL | 1.5 µg/mL (≈ 3.1 µM) | 6.2 µg/mL (≈ 12.8 µM) |  | 
C#CCSCC(=O)NC1(OC)C(=O)N2C(C(=O)O)=C(CSc3nnnn3C)CSC21 (stereo not drawn) [HCCCH2 S, 3-(1-Methyl-1H-tetrazol-5-yl)thiomethyl-7β-propargylthioacetamido-7α-methoxy-3-cephem-4-carboxylic acid] | 0.8 µg/mL (≈ 1.7 µM) | 0.2 µg/mL (≈ 0.425 µM) | 3.1 µg/mL (≈ 6.59 µM) |  |  | 0.8 µg/mL (≈ 1.7 µM) | 400 µg/mL (≈ 850 µM) |  |  |  | 
COC1(NC(=O)CSc2ccon2)C(=O)N2C(C(=O)O)=C(COC(C)=O)CSC21 (stereo not drawn) [3-Acetoxymethyl-7β-(3-isoxazolylthioacetamido)-7α-methoxy-3-cephem-4-carboxylic acid] | 0.8 µg/mL (≈ 1.8 µM) | 0.2 µg/mL (≈ 0.451 µM) | 6.2 µg/mL (≈ 14 µM) |  |  |  | > 400 µg/mL |  |  |  | 
COC1(NC(=O)Cc2ccccc2)C(=O)N2C(C(=O)O)=C(COC(N)=O)CSC21 (stereo not drawn) [C6 H5, reference compound] | 3.1 µg/mL (≈ 7.36 µM) | 0.8 µg/mL (≈ 1.9 µM) | 12.5 µg/mL (≈ 29.7 µM) | 25 µg/mL (≈ 59.3 µM) | 25 µg/mL (≈ 59.3 µM) |  | > 400 µg/mL | 25 µg/mL (≈ 59.3 µM) | 25 µg/mL (≈ 59.3 µM) | 12.5 µg/mL (≈ 29.7 µM) | 
COC1(NC(=O)CSCN=[N+]=[N-])C(=O)N2C(C(=O)O)=C(CSc3nnnn3C)CSC21 (stereo not drawn) [N3 CH2 S] | 0.4 µg/mL (≈ 0.82 µM) | 0.4 µg/mL (≈ 0.82 µM) | 1.5 µg/mL (≈ 3.08 µM) | 3.1 µg/mL (≈ 6.36 µM) | 3.1 µg/mL (≈ 6.36 µM) | 0.8 µg/mL (≈ 1.64 µM) | > 200 µg/mL | 3.1 µg/mL (≈ 6.36 µM) | 1.5 µg/mL (≈ 3.08 µM) |  | 
CC(=O)OCC1=C(C(=O)O)N2C(=O)[C@@H](NC(=O)Cc3cccs3)[C@H]2SC1 [Cephalothin, reference compound] |  |  | 12.5 µg/mL (≈ 31.5 µM) | 6.2 µg/mL (≈ 15.6 µM) | 6.2 µg/mL (≈ 15.6 µM) | 6.2 µg/mL (≈ 15.6 µM) | > 200 µg/mL |  | 6.2 µg/mL (≈ 15.6 µM) |  | 25 µg/mL (≈ 63.1 µM)
CO[C@@]1(NC(=O)CSCN=[N+]=[N-])C(=O)N2C(C(=O)O)=C(COC(N)=O)CS[C@@H]21 [N3 CH2 S, OCONH2, 7β-Azidomethylthioacetamido-3-carbamoyloxymethyl-7α-methoxy-3-cephem-4-carboxylic acid] | 1.5 µg/mL (≈ 3.47 µM) | 0.2 µg/mL (≈ 0.462 µM) | 3.1 µg/mL (≈ 7.17 µM) | 3.1 µg/mL (≈ 7.17 µM) | 3.1 µg/mL (≈ 7.17 µM) | 1.5 µg/mL (≈ 3.47 µM) | > 400 µg/mL | 6.2 µg/mL (≈ 14.3 µM) | 3.1 µg/mL (≈ 7.17 µM) |  | 
COC1(NC(=O)CS(C)(=O)=O)C(=O)N2C(C(=O)O)=C(CSc3nnnn3C)CSC21 (stereo not drawn) [CH3 SO2, 7α-Methoxy-7β-methylsulfonylacetamido-3-(1-methyl-1H-tetrazol-5-yl)thiomethyl-3-cephem-4-carboxylic acid] |  | 0.8 µg/mL (≈ 1.67 µM) | 1.5 µg/mL (≈ 3.13 µM) |  | 0.8 µg/mL (≈ 1.67 µM) | 0.4 µg/mL (≈ 0.836 µM) | 400 µg/mL (≈ 836 µM) |  |  |  | 
COC1(NC(=O)COc2ccon2)C(=O)N2C(C(=O)O)=C(CSc3nnnn3C)CSC21 (stereo not drawn) | 0.8 µg/mL (≈ 1.65 µM) | 0.2 µg/mL (≈ 0.414 µM) | 3.1 µg/mL (≈ 6.41 µM) | 3.1 µg/mL (≈ 6.41 µM) | 3.1 µg/mL (≈ 6.41 µM) | 1.5 µg/mL (≈ 3.1 µM) | > 400 µg/mL | 3.1 µg/mL (≈ 6.41 µM) | 6.2 µg/mL (≈ 12.8 µM) |  | 
COC1(NC(=O)CS(=O)(=O)CCC#N)C(=O)N2C(C(=O)O)=C(CSc3nnnn3C)CSC21 (stereo not drawn) [NCCH2 CH2 SO2, 7β-(2-Cyanoethylsulfonyl)acetamido-7α-methoxy-3-(1-methyl-1H-tetrazol-5-yl)thiomethyl-3-cephem-4-carboxylic acid] | 3.1 µg/mL (≈ 5.99 µM) | 1.5 µg/mL (≈ 2.9 µM) | 3.1 µg/mL (≈ 5.99 µM) | 1.5 µg/mL (≈ 2.9 µM) | 1.5 µg/mL (≈ 2.9 µM) | 0.8 µg/mL (≈ 1.55 µM) | 200 µg/mL (≈ 386 µM) | 1.5 µg/mL (≈ 2.9 µM) | 6.2 µg/mL (≈ 12 µM) |  | 
COC1(NC(=O)CSc2ccon2)C(=O)N2C(C(=O)O)=C(CSc3nnnn3C)CSC21 (stereo not drawn) | 0.8 µg/mL (≈ 1.6 µM) | 0.2 µg/mL (≈ 0.4 µM) | 3.1 µg/mL (≈ 6.21 µM) | 3.1 µg/mL (≈ 6.21 µM) | 6.2 µg/mL (≈ 12.4 µM) | 0.8 µg/mL (≈ 1.6 µM) | > 400 µg/mL | 3.1 µg/mL (≈ 6.21 µM) | 3.1 µg/mL (≈ 6.21 µM) |  | 
COC1(NC(=O)CSCCO)C(=O)N2C(C(=O)O)=C(CSc3nnnn3C)CSC21 (stereo not drawn) [HOCH2 CH2 S, 7β-(2-Hydroxyethyl)thioacetamido-7α-methoxy-3-(1-methyl-1H-tetrazol-5-yl)thiomethyl-3-cephem-4-carboxylic acid] | 1.5 µg/mL (≈ 3.15 µM) | 0.8 µg/mL (≈ 1.68 µM) | 3.1 µg/mL (≈ 6.5 µM) | 1.5 µg/mL (≈ 3.15 µM) | 1.5 µg/mL (≈ 3.15 µM) | 1.5 µg/mL (≈ 3.15 µM) | 400 µg/mL (≈ 839 µM) | 1.5 µg/mL (≈ 3.15 µM) | 6.2 µg/mL (≈ 13 µM) |  | 
